Data from US20060040871A1, “Bacterial transforming agent” (priority 2003, published 2006).
Like-named read-outs stand apart in the source and are kept apart here. Values belong to the compound of their own block, whether it stands above or below them.

Tests used:
MRSA [1] = test: MIC of ceftazidime or cefuroxime for MRSA grown with or without GBE (Table 2); type: cell-based, Staphylococcus aureus; conditions: Control; for MIC: Staphylococcus aureus
Description: Importantly, the usefulness of the agents of the present invention is not limited to increasing bacterial sensitivity to methicillin.

MRSA [2] = test: Antimicrobial plus BTA against recent clinical MRSA isolates (Table 7); type: cell-based, Staphylococcus aureus
Description: The four clinical isolates were isolated from patients during the first three months of 2003. […] An intermediate MRSA has been included, as methicillin-resistance has been achieved by means other than production of PBP2a.

VRE = test: Antimicrobial plus BTA against VRE (Table 7); type: cell-based, enterococci; conditions: +BTA 0.01%

MIC of ceftazidime (MRSA [1]; CD40 (EMRSA-1)): >256 µg/mL
MIC of ceftazidime (MRSA [1]; E15-97 (EMRSA-15)): >256 µg/mL
MIC of ceftazidime (MRSA [1]; E16-96 (EMRSA-16)): >256 µg/mL
MIC of ceftazidime (MRSA [1]; JF1-32 (EMRSA-1)): >256 µg/mL
MIC of ceftazidime (MRSA [1]; MC01 (EMRSA-1)): >256 µg/mL
MIC of ceftazidime (MRSA [1]; PS3-32 (EMRSA-1)): >256 µg/mL
MIC of ceftazidime (MRSA [1]; SN31 (EMRSA-1)): >256 µg/mL
MIC of ceftazidime (MRSA [1]; ST11 (EMRSA-1)): >256 µg/mL
MIC of ceftazidime (MRSA [1]; SW2-32 (EMRSA-1)): >256 µg/mL
MIC (MRSA [1]; MRSA / NCTC 12493, NCTC 12493, read-out: MIC of ceftazidime): > 256 µg/mL
MIC (MRSA [1]; MRSA, DS09 (EMRSA-1), read-out: MIC of ceftazidime): > 256 µg/mL
Compound: CC(C)(O/N=C(\C(=O)N[C@@H]1C(=O)N2C(C(=O)[O-])=C(C[n+]3ccccc3)CS[C@H]12)c1csc(N)n1)C(=O)O [Ceftazidime, ceftazidime]

MIC of cefuroxime (MRSA [1]; CD40 (EMRSA-1)): >256 µg/mL
MIC of cefuroxime (MRSA [1]; E15-97 (EMRSA-15)): >256 µg/mL
MIC of cefuroxime (MRSA [1]; E16-96 (EMRSA-16)): >256 µg/mL
MIC of cefuroxime (MRSA [1]; JF1-32 (EMRSA-1)): >256 µg/mL
MIC of cefuroxime (MRSA [1]; MC01 (EMRSA-1)): >256 µg/mL
MIC of cefuroxime (MRSA [1]; PS3-32 (EMRSA-1)): >256 µg/mL
MIC of cefuroxime (MRSA [1]; SN31 (EMRSA-1)): >256 µg/mL
MIC of cefuroxime (MRSA [1]; ST11 (EMRSA-1)): >256 µg/mL
MIC of cefuroxime (MRSA [1]; SW2-32 (EMRSA-1)): >256 µg/mL
MIC (MRSA [1]; MRSA / NCTC 12493, NCTC 12493, read-out: MIC of cefuroxime): > 256 µg/mL
MIC (MRSA [1]; MRSA, DS09 (EMRSA-1), read-out: MIC of cefuroxime): > 256 µg/mL
Compound: CO/N=C(\C(=O)N[C@@H]1C(=O)N2C(C(=O)O)=C(COC(N)=O)CS[C@H]12)c1ccco1 [Cefuroxime, cefuroxime]

Compound: C#CCC(N)C(=O)O.C#CCC(N)C(=O)O (stereo not drawn) [PPG, Propargylglycine (2-Amino-4-pentynoic acid)]
Oxacillin (antimicrobial plus BTA; quantity not named, MIC implied) (MRSA [2]; EMRSA-16, +BTA 0.001%): 4 µg/mL
Cephalexin (antimicrobial plus BTA; quantity not named, MIC implied) (MRSA [2]; EMRSA-16, +BTA 0.01%): 12 µg/mL
Oxacillin (antimicrobial plus BTA; quantity not named, MIC implied) (MRSA [2]; EMRSA-16, +BTA 0.01%): 1.5 µg/mL
Vancomycin (antimicrobial plus BTA; quantity not named, MIC implied) (MRSA [2]; EMRSA-16, +BTA 0.01%): 0.25 µg/mL
Oxacillin (antimicrobial plus BTA; quantity not named, MIC implied) (MRSA [2]; EMRSA-17, +BTA 0.001%): 8 µg/mL
Cephalexin (antimicrobial plus BTA; quantity not named, MIC implied) (MRSA [2]; EMRSA-17, +BTA 0.01%): 6 µg/mL
Oxacillin (antimicrobial plus BTA; quantity not named, MIC implied) (MRSA [2]; EMRSA-17, +BTA 0.01%): 2 µg/mL
Vancomycin (antimicrobial plus BTA; quantity not named, MIC implied) (MRSA [2]; EMRSA-17, +BTA 0.01%): 0.25 µg/mL
Oxacillin (antimicrobial plus BTA; quantity not named, MIC implied) (MRSA [2]; I-MRSA, +BTA 0.001%): 2 µg/mL
Cephalexin (antimicrobial plus BTA; quantity not named, MIC implied) (MRSA [2]; I-MRSA, +BTA 0.01%): 0.125 µg/mL
Oxacillin (antimicrobial plus BTA; quantity not named, MIC implied) (MRSA [2]; I-MRSA, +BTA 0.01%): 0.125 µg/mL
Vancomycin (antimicrobial plus BTA; quantity not named, MIC implied) (MRSA [2]; I-MRSA, +BTA 0.01%): < 0.25 µg/mL
Vancomycin (antimicrobial plus BTA; quantity not named, MIC implied) (VRE): 64 µg/mL

Cephalexin (antimicrobial plus BTA; quantity not named, MIC implied) (MRSA [2]; I-MRSA, cephalexin alone): 32 µg/mL
Compound: CC1=C(C(=O)O)N2C(=O)[C@@H](NC(=O)[C@H](N)c3ccccc3)[C@H]2SC1 [Cephalexin, cephalexin]
